Test results: patent US11814402B2, “Binuclear palladacycles and their use in the treatment of cancer” (Stellenbosch University, priority 2019, dated 2023)
Each block holds one compound with its values, some of them ahead of it.

Experiments:
[1] = test system: oestrogen receptor positive MCF7 breast cancer cells; settings: prior report on AJ5; read-out: IC50 MCF-7; cited from earlier work
[2] = test system: human breast adenocarcinoma MDA-MB-231 (estrogen receptor negative) cells; test: Cytotoxicity (MTT) assay, MDA-MB-231; type: cell-based; settings: 48 hours treatment
Method: (§1) These included cell viability tests using a MTT assay, and in some cases Western blots to test for DNA damage using γ-H2AX and PARP cleavage to determine whether or not apoptosis takes place.
The complex solutions were prepared by dissolution in DMSO to obtain 5 mM stock solutions. Solutions were stored at room temperature for no more than a week. […] After 48 hours, the cells were treated with various concentrations of complex (0-1 μM) or the vehicle for 48 hours. The 3-(4,5-dimethylthiazol-2-yl)-2,5-diphenyltetrazolium bromide (MTT) assay was then used, as described by the manufacturer's instructions: 10 μL of MTT solution was added to each well. Well plates were then incubated at 37° C. for 4 h. This was followed by addition of 100 μL solubilisation buffer (10% SDS in 0.01 M HCl) and incubation overnight at 37° C. Absorbance at 585 nm was then determined for each well and the mean cell viability was calculated as a percentage of the mean vehicle control. The experiments were performed in triplicate and the data were used to determine the half maximal inhibitory concentration values (IC50).

[3] = test system: human breast adenocarcinoma MCF-7 (estrogen receptor positive) cells; test: Cytotoxicity (MTT) assay, MCF-7; type: cell-based; settings: 48 hours treatment
Method: as §1
The complex solutions were prepared by dissolution in DMSO to obtain 5 mM stock solutions. Solutions were stored at room temperature for no more than a week. […] The 3-(4,5-dimethylthiazol-2-yl)-2,5-diphenyltetrazolium bromide (MTT) assay was then used, as described by the manufacturer's instructions: 10 μL of MTT solution was added to each well. Well plates were then incubated at 37° C. for 4 h. This was followed by addition of 100 μL solubilisation buffer (10% SDS in 0.01 M HCl) and incubation overnight at 37° C. Absorbance at 585 nm was then determined for each well and the mean cell viability was calculated as a percentage of the mean vehicle control. The experiments were performed in triplicate and the data were used to determine the half maximal inhibitory concentration values (IC50).

[4] = test system: ME1402 melanoma cells; settings: Biochem. Pharmacol. 2013, 86, 1650; read-out: IC50 proliferation ME1402 melanoma cells; cited from earlier work
[5] = Turbidimetric assay - solubility in 10% DMSO:PBS; type: physicochemical; settings: for aqueous solubility (in words): aqueous media
Method: A 0.01 M pH 7.4 Phosphate Buffered Saline (PBS) solution was prepared by dissolving one PBS tablet (Sigma-Aldrich) in 200 mL distilled water at 25° C. to yield a buffered solution containing 0.01 M phosphate buffer, 0.003 M KCl and 0.14 M NaCl. The solution equilibrated at 25° C. for one hour upon which the pH was confirmed.
A preparation plate (96-well flat bottomed) was prepared by serially diluting the compound to achieve the desired concentrations (5.0 μM to 200 μM). The test plate was prepared by pipetting […] into wells 7-12. Each compound was tested in triplicate thus a single plate could be used to evaluate two compounds. […] of each compound concentration was pipetted from the preparation plate into the test plate to bring the total volume up to 200 μL and to ensure that a 10% (v/v) DMSO/PBS solution is achieved. Test plates were prepared in duplicate and one plate was incubated at room temperature (25° C.) and the second at physiological temperature (37° C.). Both test plates were incubated for 2 hours upon which the UV-Vis absorbance readings were measured at 620 nm. The corrected absorbance readings were obtained by subtracting the blank readings from each concentration absorbance.

[6] = test system: oestrogen receptor negative MDA-MB-231 breast cancer cells; settings: prior report on AJ5; cited from earlier work
[7] = test system: WM1158 melanoma cells; settings: Biochem. Pharmacol. 2013, 86, 1650; read-out: IC50 proliferation WM1158 melanoma cells; cited from earlier work
[8] = Solubility in DMSO and DMSO/water (characterisation data); settings: for behaviour on addition of water / aqueous medium: test medium; for Solubility: DMSO: in DMSO
[9] = test system: MCF 7 breast cancer cell line tumour; test: In vivo anti-tumour activity, MCF 7 (chick embryo model)
Method: (§2) The activity of BTC2 was evaluated in two breast cancer cell lines (MCF 7 and MDA-MB-231). The latter is an aggressive, metastatic cell line in which metastasis is often difficult to prevent or control.
(§3) Metastasis is the process of the spreading of the cancer from its site of origin to other parts of the body. This was evaluated using the same chick embryo model as mentioned above, and again compared to the known drug, paclitaxel.

[10] = test system: MDA-MB 231 breast cancer cell line metastasis; test: Metastasis reduction, MDA-MB 231 (chick embryo model); type: in vivo
Method: The ability of BTC2 to prevent metastasis was also evaluated.
as §3
When tested in the aggressive breast cancer cell line, MDA-MB 231, BTC2 was able to induce a 46% reduction in metastasis compared to 64% reduction for paclitaxel.

[11] = test system: γ-H2AX in MCF7 cells; test: Western blot, γ-H2AX (DNA damage); type: cell-based, human; settings: treatment for 24 and 48 hours
Method: The complex solutions were prepared by dissolution in DMSO to obtain 0.1 and 0.2 μM stock solutions. Solutions were stored at room temperature for no more than a week. Human MCF7 breast adenocarcinoma cells in RPMI 1640 medium were plated in 6 cm petri dishes at 6×10^5 cells per plate. The cells were treated with the complex solutions for 24 or 48 hours. Cells were then lysed using whole cell lysis buffer (0.5 M tris-HCl, pH 6.8, 2% SDS, 10% glycerol, 1% β-mercaptoethanol and 0.02% bromophenol blue). Samples were boiled for 10 minutes. The proteins were resolved using SDS/PAGE (8-15% gels) as required. They were then transferred to Hybond ECL membranes which were then incubated with primary antibodies against PARP ½ (sc-7150), phospho-H2AX (#2577) and p38 (M000). Thereafter, the membranes were incubated with HRP-conjugated secondary antibodies (1:5000). The antibody-reactive proteins were visualised with a chemiluminescence reaction (ECL) detection system.
The most important proteins which are employed as markers for potential anti-cancer drugs are γ-H2AX, which, if present, is an indication of DNA damage and PARP, which if cleaved, is an indication that apoptosis has been induced. In order to allow for relative quantification of the proteins being detected, a loading control, P38, was used to ensure that loading discrepancies are not interpreted as drug-induced changes.

[12] = test system: MDA-MB-231 breast cancer cell line tumour; test: In vivo anti-tumour activity, MDA-MB-231 (chick embryo model); settings: MDA-MB-231, about half the concentration of paclitaxel
Method: as §2
Again, BTC2 was used at about half the concentration of the control, paclitaxel.
as §3

[13] = turbidimetric assay, 10% DMSO:PBS pH 7.4, 37° C., 2 hours incubation

aqueous solubility (in words) [5]: poor solubility | Solubility in 10% DMSO:PBS at 37° C. [5, 13]: 5.98 to 11.97 µg/mL
Compound: CC(C)c1cccc(C(C)C)c1[N+]1=Cc2cccc[c]2[Pd-2]1([Cl])[P+](CC[P+](c1ccccc1)(c1ccccc1)[Pd-2]1([Cl])[c]2ccccc2C=[N+]1c1c(C(C)C)cccc1C(C)C)(c1ccccc1)c1ccccc1 (centres unmarked) [AJ5]
IC50 [1]: 175 nM | IC50 [2]: 190 ± 15 nM | IC50 [3]: 180 ± 48 nM | IC50 [4]: 190 nM | IC50 [6]: 193 nM | IC50 [7]: 200 nM

Solubility in 10% DMSO:PBS at 37° C. [5, 13]: 10.21 to 20.41 µg/mL
Compound: CC(C)c1cccc(C(C)C)c1[N+]1=Cc2cccc[c]2[Pd-2]1([Cl])[P+](C[P+](c1ccccc1)(c1ccccc1)[Pd-2]1([Cl])[c]2ccccc2C=[N+]1c1c(C(C)C)cccc1C(C)C)(c1ccccc1)c1ccccc1 (centres unmarked) [BC1]
IC50 [2]: 2200 ± 190 nM | IC50 [3]: 2700 ± 210 nM

Solubility in 10% DMSO:PBS at 37° C. [5, 13]: 6.12 to 12.25 µg/mL
Compound: CC(C)c1cccc(C(C)C)c1[N+]1=Cc2cccc[c]2[Pd-2]1([Cl])[P+](CCC[P+](c1ccccc1)(c1ccccc1)[Pd-2]1([Cl])[c]2ccccc2C=[N+]1c1c(C(C)C)cccc1C(C)C)(c1ccccc1)c1ccccc1 (centres unmarked) [BC3]
IC50 [2]: 5000 ± 75 nM | IC50 [3]: 5800 ± 280 nM

Compound: CC(C)c1cccc(C(C)C)c1[N+]1=Cc2cccc[c]2[Pd-2]1([Cl])[P+](c1ccccc1)(c1ccccc1)[c-]1cccc1.CC(C)c1cccc(C(C)C)c1[N+]1=Cc2cccc[c]2[Pd-2]1([Cl])[P+](c1ccccc1)(c1ccccc1)[c-]1cccc1.[Fe+2] (centres unmarked) [BC4]
IC50 MDA-MB-231 [2]: Inactive | IC50 MCF-7 [3]: Inactive | behaviour on addition of water / aqueous medium [8]: completely intolerant of water | Solubility in 10% DMSO:PBS at 37° C. [5, 13]: 13.65 to 27.30 µg/mL

Compound: CC(C)c1cccc(C(C)C)c1[N+]1=Cc2ccc(OCCOCCO)c[c]2[Pd-2]1([Cl])[P+](c1ccccc1)(c1ccccc1)[c-]1cccc1.CC(C)c1cccc(C(C)C)c1[N+]1=Cc2ccc(OCCOCCO)c[c]2[Pd-2]1([Cl])[P+](c1ccccc1)(c1ccccc1)[c-]1cccc1.[Fe+2] (centres unmarked) [BTC4, [(PdCl{4-[2-(2-hydroxyethoxy)ethoxy]}CH═N{2,6-^iPr2-C6H3})2(μ-Ph2P(C5H4)Fe(C5H4)PPh2]]
IC50 MDA-MB-231 [2]: Inactive | IC50 MCF-7 [3]: Inactive | Solubility: % DMSO in water [8]: 98 % DMSO in water | Solubility: DMSO [8]: 53700 µg/mL | behaviour on addition of water / aqueous medium [8]: completely intolerant of water | aqueous solubility (in words) [5]: highly insoluble

Compound: CC(C)c1cccc(C(C)C)c1[N+]1=Cc2ccc(OCCO)c[c]2[Pd-2]1([Cl])[P+](CC[P+](c1ccccc1)(c1ccccc1)[Pd-2]1([Cl])[c]2cc(OCCO)ccc2C=[N+]1c1c(C(C)C)cccc1C(C)C)(c1ccccc1)c1ccccc1 (centres unmarked) [BTC5, [(PdCl{4-(2-hydroxyethoxy})CH═N{2,6-^iPr2-C6H3})2(μ-Ph2P(CH2)2PPh2)]]
solubility at 2 h ([5]; 10% DMSO:phosphate buffered saline, aqueous with cosolvent or surfactant or cyclodextrin, kinetic from dmso stock, turbidimetric assay, 10% DMSO:PBS pH 7.4, 37° C., 2 hours incubation): 13.3 to 26.6 µg/mL

Compound: CC(=O)O[C@H]1C(=O)[C@@]2(C)[C@H]([C@H](OC(=O)c3ccccc3)[C@]3(O)C[C@H](OC(=O)[C@H](O)[C@@H](NC(=O)c4ccccc4)c4ccccc4)C(C)=C1C3(C)C)[C@]1(OC(C)=O)CO[C@@H]1C[C@@H]2O [paclitaxel]
tumour regression ([9]; MCF 7, concentration 50 μM): 26% | reduction in metastasis ([10]; MDA-MB 231, 50 μM): 64%

Compound: [(PdCl{4-[2-(2-hydroxyethoxy)ethoxy]}CH═N{2,6-^iPr2-C6H3})2(μ-Ph2P(CH2)2PPh2)] [BTC2]
IC50 [2]: 580 ± 12 nM | IC50 [3]: 490 ± 20 nM | Solubility: % DMSO in water [8]: 76 % DMSO in water | Solubility: DMSO [8]: 32600 µg/mL | γ-H2AX (Western blot) [11]: significant amount of γ-H2AX | Solubility in 10% DMSO:PBS at 37° C. [5, 13]: 28.38 to 56.77 µg/mL | tumour reduction (in words) [12]: able to induce tumour reduction | tumour regression ([9]; MCF 7, concentration 24.5 μM): 21% | reduction in metastasis ([10]; MDA-MB 231, 24.4 μM): 46%

Compound: [(PdCl{4-[2-(2-hydroxyethoxy)ethoxy]}CH═N{2,6-^iPr2-C6H3})2(μ-Ph2P(CH2)3PPh2)] [BTC3]
IC50 [2]: 2300 ± 190 nM | IC50 [3]: 2500 ± 260 nM
